Experimental data as given in patent US20100292205A1, “Pyrimidone Compounds As GSK-3 Inhibitors” (PFIZER INC., priority 2006, published 2010).
Like-named read-outs stand apart in the source and are kept apart here. Blank lines part the entries; values can stand above or below the compound they belong to.

Target: T1, Recombinant human GSK3β (Homo sapiens, UniProt P49841)
T1 construct: His-tag; made in house; host or cells: Sf9 insect cells / baculovirus
Experiment: GSK-3β (Glycogen Synthase Kinase) cell free enzyme assay
Format: biochemical
Settings: for inhibition at 1 µM: read-out: Percent inhibition at 1 μM; for IC50: cell free enzyme assay
In short: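 Recombinant human GSK3β, expressed in SF9/baculovirus cells and His-tag purified on Ni-NTA Superflow, was preincubated with test agent for 30 minutes at room temperature. Substrate mix was then added to start the reaction in 8 mM MOPS (pH 7.0), 10 mM magnesium acetate, 0.2 mM EDTA, 1 mM DTT, 2 uM cold ATP, 0.025 uCi/well [33P]ATP (120 uL) and 1.0 uM biotinylated peptide. Reactions ran at RT for 60 min.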

T1 sequence (P49841 whole entry): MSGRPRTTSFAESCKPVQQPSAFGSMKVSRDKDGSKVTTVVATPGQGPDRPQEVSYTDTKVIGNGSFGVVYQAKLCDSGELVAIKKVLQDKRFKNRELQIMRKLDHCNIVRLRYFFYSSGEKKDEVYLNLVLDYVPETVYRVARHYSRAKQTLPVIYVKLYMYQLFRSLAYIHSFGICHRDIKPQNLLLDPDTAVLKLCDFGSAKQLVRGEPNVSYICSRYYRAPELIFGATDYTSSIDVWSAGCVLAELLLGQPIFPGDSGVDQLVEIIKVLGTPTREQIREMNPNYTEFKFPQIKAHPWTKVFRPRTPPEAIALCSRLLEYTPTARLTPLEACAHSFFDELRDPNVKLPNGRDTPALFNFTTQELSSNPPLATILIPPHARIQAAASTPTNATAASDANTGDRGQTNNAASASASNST

inhibition at 1 µM (1 μM, Examples 236-262): 84%
Compound: Cn1c(NC2CCCN(Cc3ccccc3)CC2)nc(-c2ccncc2)cc1=O (stereo not drawn) [Example 237, 2-[(1-Benzylazepan-4-yl)amino]-3-methyl-6-pyridin-4-ylpyrimidin-4(3H)-one]

inhibition at 1 µM (1 μM, Examples 201-221): 67%
Compound: COC(=O)N1C[C@H](F)[C@H](Nc2nc(-c3ccncc3)cc(=O)n2C)C1 [Example 211, Methyl (3S,4R)-3-fluoro-4-[(1-methyl-6-oxo-4-pyridin-4-yl-16-dihydropyrimidin-2-yl)amino]pyrrolidine-1-carboxylate]

inhibition at 1 µM (1 μM, Examples 236-262): 43%
Compound: CN(c1nc(-c2ccncc2)cc(=O)n1C)[C@@H]1CC[C@H]2N(Cc3ccccc3)CC[C@@]2(C)C1 [Example 258, 2-{[(3a,S5,R7,aR)-1-Benzyl-3a-methyloctahydro-1H-indol-5-yl](methyl)amino}-3-methyl-6-pyridin-4-ylpyrimidin-4(3H)-one]

IC50 (Examples 62-155): 2.11 nM
Compound: CN(c1nc(-c2ccncc2F)cc(=O)n1C)[C@H]1[C@@H]2CN(C(=O)c3cccc(C(F)(F)F)c3)C[C@@H]21 [Example 125, 6-(3-Fluoropyridin-4-yl)-3-methyl-2-(methyl{(1R,5S,6s)-3-[3-(trifluoromethyl)benzoyl]-3-azabicyclo[3.1.0]hex-6-yl}amino)pyrimidin-4(3H)-one]

inhibition at 1 µM (1 μM, Examples 157-199): 93%
Compound: Cn1c(N[C@@H]2CN(S(C)(=O)=O)C[C@@H]2F)nc(-c2ccncc2)cc1=O [Example 161, 2-{[(3R,4S)-4-Fluoro-1-(methylsulfonyl)pyrrolidin-3-yl]amino}-3-methyl-6-pyridin-4-ylpyrimidin-4(3H)-one]

inhibition at 1 µM (1 μM, Examples 157-199): 100%
Compound: CN(c1nc(-c2ccncc2)cc(=O)n1C)[C@H]1CC[C@H]2N(S(=O)(=O)c3ccccc3)CC[C@@]2(C)C1 [Example 178, 3-Methyl-2-{methyl[(3a,S5,S7,aR)-3a-methyl-1-(phenylsulfonyl)octahydro-1H-indol-5-yl]amino}-6-pyridin-4-ylpyrimidin-4(3H)-one]

inhibition at 1 µM (1 μM, Examples 201-221): 80%
Compound: COC(=O)N1CC(Nc2nc(-c3ccncc3)cc(=O)n2C)C1 [Example 209, Methyl 3-[(1-methyl-6-oxo-4-pyridin-4-yl-16-dihydropyrimidin-2-yl)amino]azetidine-1-carboxylate]

IC50 (Examples 62-155): 1.41 nM
Compound: CN(c1nc(-c2ccncc2F)cc(=O)n1C)[C@H]1[C@@H]2CN(C(=O)C(C)(C)C)C[C@@H]21 [Example 121, 2-{[(1R,5S,6s)-3-(2,2-Dimethylpropanoyl)-3-azabicyclo[3.1.0]hex-6-yl](methyl)amino}-6-(3-fluoropyridin-4-yl)-3-methylpyrimidin-4(3H)-one]

IC50 (Examples 265-291): 6.21 nM
Compound: CCOC(=O)c1cccc(-n2nnnc2N2C[C@@H]3[C@H](C2)[C@H]3N(C)c2nc(-c3ccncc3F)cc(=O)n2C)c1 [Example 276, Ethyl 3-{5-[(1R,5S,6s)-6-{[4-(3-fluoropyridin-4-yl)-1-methyl-6-oxo-1,6-dihydropyrimidin-2-yl](methyl)amino}-3-azabicyclo[3.1.0]hex-3-yl]-1H-tetrazol-1-yl}benzoate]

IC50 (Examples 265-291): 52.4 nM
Compound: CCc1cn2nc(N3C[C@@H]4[C@H](C3)[C@H]4N(C)c3nc(-c4ccncc4F)cc(=O)n3C)ccc2n1 [Example 265, 2-{[(1R,5S,6s)-3-(2-Ethylimidazo[1,2-b]pyridazin-6-yl)-3-azabicyclo[3.1.0]hex-6-yl](methyl)amino}-6-(3-fluoropyridin-4-yl)-3-methylpyrimidin-4(3H)-one]

IC50 (Examples 1-35): 0.7 nM
Compound: Cn1c(N2CC[C@@](O)(c3ccccc3)[C@H]3CCCC[C@H]32)nc(-c2ccncc2)cc1=O [Example 1, 2-[(4S,4aS,8aR)-4-Hydroxy-4-phenyloctahydro-quinolin-1(2H)-yl]-3-methyl-6-pyridin-4-ylpyrimidin-4(3H)-one]

IC50 (Examples 62-155): 7.23 nM
Compound: CN(c1nc(-c2ccncc2F)cc(=O)n1C)[C@H]1[C@@H]2CN(C(=O)c3ccc(F)c(F)c3)C[C@@H]21 [Example 153, 2-{[(1R,5S,6s)-3-(3,4-Difluorobenzoyl)-3-azabicyclo[3.1.0]hex-6-yl](methyl)amino}-6-(3-fluoropyridin-4-yl)-3-methylpyrimidin-4(3H)-one]

IC50 (Examples 62-155): 5.67 nM
Compound: CN(c1nc(-c2ccncc2F)cc(=O)n1C)[C@H]1[C@@H]2CN(C(=O)c3ccc(F)cc3)C[C@@H]21 [Example 139, 2-{[(1R,5S,6s)-3-(4-Fluorobenzoyl)-3-azabicyclo[3.1.0]hex-6-yl](methyl)amino}-6-(3-fluoropyridin-4-yl)-3-methylpyrimidin-4(3H)-one]

IC50 (Examples 265-291): 4.48 nM
Compound: CN(c1nc(-c2ccncc2F)cc(=O)n1C)[C@H]1[C@@H]2CN(c3nnnn3CC3CC3)C[C@@H]21 [Example 280, 2-[{(1R,5S,6s)-3-[1-(Cyclopropylmethyl)-1H-tetrazol-5-yl]-3-azabicyclo[3.1.0]hex-6-yl}(methyl)amino]-6-(3-fluoropyridin-4-yl)-3-methylpyrimidin-4(3H)-one]

Percent inhibition at 1 μM (1 μM, Examples 201-221): 93%
Compound: Methyl (1R,5S)-8-(1-methyl- 6-oxo-4-pyridin-4-yl-16- dihydropyrimidin-2-yl)-38- diazabicyclo[3.2.1]octane-3- carboxylate [Example 202]

IC50 (Examples 265-291): 16.7 nM
Compound: CN(c1nc(-c2ccncc2F)cc(=O)n1C)[C@H]1[C@@H]2CN(c3nc4cc(F)ccc4n3C)C[C@@H]21 [Example 266, 2-{[(1R,5S,6s)-3-(5-Fluoro-1-methyl-1H-benzimidazol-2-yl)-3-azabicyclo[3.1.0]hex-6-yl](methyl)amino}-6-(3-fluoropyridin-4-yl)-3-methylpyrimidin-4(3H)-one]

IC50 (Examples 62-155): 77.5 nM
Compound: Cn1c(NC2CCN(C(=O)c3ccccc3)C2)nc(-c2ccncc2)cc1=O (stereo not drawn) [Example 62, 2-[(1-Benzoylpyrrolidin-3-yl)amino]-3-methyl-6-pyridin-4-ylpyrimidin-4(3H)-one]

inhibition at 1 µM (1 μM, Examples 157-199): 101%
Compound: CCN(c1nc(-c2ccncc2)cc(=O)n1C)C1CCCN(S(=O)(=O)c2ccccc2)CC1 (stereo not drawn) [Example 186, 2-{Ethyl[1-(phenylsulfonyl)azepan-4-yl]amino}-3-methyl-6-pyridin-4-ylpyrimidin-4(3H)-one]

inhibition at 1 µM (1 μM, Examples 157-199): 90%
Compound: CN(c1nc(-c2ccncc2)cc(=O)n1C)C1CCN(S(=O)(=O)Cc2ccccc2)C1 (stereo not drawn) [Example 194, 2-{[1-(Benzylsulfonyl)pyrrolidin-3-yl](methyl)amino}-3-methyl-6-pyridin-4-ylpyrimidin-4(3H)-one]

IC50 (Examples 265-291): 25.1 nM
Compound: COc1ccc2nc(N3C[C@@H]4[C@H](C3)[C@H]4N(C)c3nc(-c4ccncc4F)cc(=O)n3C)sc2c1 [Example 289, 6-(3-Fluoropyridin-4-yl)-2-{[(1R,5S,6s)-3-(6-methoxy-1,3-benzothiazol-2-yl)-3-azabicyclo[3.1.0]hex-6-yl](methyl)amino}-3-methylpyrimidin-4(3H)-one]

IC50 (Examples 62-155): 2.63 nM
Compound: CN(c1nc(-c2ccncc2F)cc(=O)n1C)[C@H]1[C@@H]2CN(C(=O)c3ccnc(Cl)c3)C[C@@H]21 [Example 112, 2-{[(1R,5S,6s)-3-(2-Chloroisonicotinoyl)-3-azabicyclo[3.1.0]hex-6-yl](methyl)amino}-6-(3-fluoropyridin-4-yl)-3-methylpyrimidin-4(3H)-one]

inhibition at 1 µM (1 μM, Examples 236-262): 83%
Compound: CCN(c1nc(-c2ccncc2)cc(=O)n1C)C1CCCN(Cc2ccccc2)CC1 (stereo not drawn) [Example 259, 2-[(1-Benzylazepan-4-yl)(ethyl)amino]-3-methyl-6-pyridin-4-ylpyrimidin-4(3H)-one]

IC50 (Examples 62-155): 16.4 nM
Compound: CCCCC(=O)N1C[C@@H]2[C@H](C1)[C@H]2N(C)c1nc(-c2ccncc2F)cc(=O)n1C [Example 128, 6-(3-Fluoropyridin-4-yl)-3-methyl-2-{methyl[(1R,5S,6s)-3-pentanoyl-3-azabicyclo[3.1.0]hex-6-yl]amino}pyrimidin-4(3H)-one]

IC50 (Examples 222-234): 1 nM
Compound: CCN(C[C@H]1CCCN1C(=O)OC)c1nc(-c2ccncn2)cc(=O)n1C [Example 226, Methyl (2R)-2-{[ethyl(1-methyl-6-oxo-1,6-dihydro-4,4′-bipyrimidin-2-yl)amino]methyl}pyrrolidine-1-carboxylate]

IC50 (Examples 222-234): 0.854 nM
Compound: COC(=O)N1CCC[C@@H](Nc2nc(-c3ccncc3)cc(=O)n2C)C1 [Example 232, Methyl (3R)-3-[(1-methyl-6-oxo-4-pyridin-4-yl-1,6-dihydropyrimidin-2-yl)amino]piperidine-1-carboxylate]

inhibition at 1 µM (1 μM, Examples 157-199): 35%
Compound: Cn1c(NCC2CN(S(=O)(=O)c3ccccc3)C2)nc(-c2ccncc2)cc1=O [Example 190, 3-Methyl-2-({[1-(phenylsulfonyl)azetidin-3-yl]methyl}amino)-6-pyridin-4-ylpyrimidin-4(3H)-one]

inhibition at 1 µM (1 μM, Examples 236-262): 43%
Compound: CN1C[C@H](Nc2nc(-c3ccncc3)cc(=O)n2C)[C@@H](F)C1 [Example 242, 2-{[(3S,4S)-4-Fluoro-1-methylpyrrolidin-3-yl]amino}-3-methyl-6-pyridin-4-ylpyrimidin-4(3H)-one]

IC50 (Examples 1-35): 37 nM
Compound: Cn1c(N2CCc3ccccc3C2Cc2ccccc2)nc(-c2ccncc2)cc1=O (stereo not drawn) [Example 22, 2-(1-Benzyl-3,4-dihydroisoquinolin-2(1H)-yl)-3-methyl-6-pyridin-4-ylpyrimidin-4(3H)-one]

inhibition at 1 µM (1 μM, Examples 201-221): 93%
Compound: CCN(c1nc(-c2ccncc2)cc(=O)n1C)C1CCCN(C(=O)OC)CC1 (stereo not drawn) [Example 215, Methyl 4-[ethyl(1-methyl-6-oxo-4-pyridin-4-yl-16-dihydropyrimidin-2-yl)amino]azepane-1-carboxylate]

IC50 (Examples 62-155): 1.11 nM
Compound: CN(c1nc(-c2ccncc2F)cc(=O)n1C)[C@H]1[C@@H]2CN(C(=O)c3ccccc3F)C[C@@H]21 [Example 118, 2-{[(1R,5S,6s)-3-(2-Fluorobenzoyl)-3-azabicyclo[3.1.0]hex-6-yl](methyl)amino}-6-(3-fluoropyridin-4-yl)-3-methylpyrimidin-4(3H)-one]
